Measurements: patent US20210024542A1 (Torcept Therapeutics, Inc., priority 2018, published 2021)

Key:
G-402 = assay: OncoPanel cell proliferation assay, G-402; type: cell-based, human; details: G-402, scale 0-10
Description: (§1) Cells were grown in RPMI 1640, 10% FBS, 2 mM L-alanyl-L-glutamine, 1 mM Na pyruvate, or a special medium. Cells were seeded into 384-well plates and incubated in a humidified atmosphere of 5% CO2 at 37° C. Compounds were added the day following cell seeding. At the same time, a time zero untreated cell plate was generated. After a 3-day incubation period, cells were fixed and stained to allow fluorescence imaging of nuclei. Compounds (1 mM stock solutions) were serially diluted in half-log steps from the highest test concentration ([…]), and assayed over 10 concentrations with a maximum assay concentration of 0.1% DMSO. Automated fluorescence microscopy was carried out using a Molecular Devices ImageXpress Micro XL high-content imager, and images were collected with a 4× objective. 16-bit TIFF images were acquired and analyzed with MetaXpress 5.1.0.41 software.
(§2) Cell proliferation was measured by the fluorescence intensity of an incorporated nuclear dye. The output is referred to as the relative cell count, where the measured nuclear intensity is transformed to percent of control (POC) using the following formula: […]
(§3) Cellular response parameters were calculated using nonlinear regression to a sigmoidal single-site dose response model:
(§4) Where y is a response measured at concentration x, A and B are the lower and upper limits of the response, C is the concentration at the response midpoint (EC50), and D is the Hill Slope (Ref. 1).
(§5) EC50 is the test compound concentration at the curve inflection point or half the effective response (parameter C of the fitted curve solution). GI50 is the concentration needed to reduce the observed growth by half (midway between the curve maximum and the time zero value). “Cell Count Activity Area” is an estimate of the integrated area above the curve (Barretina, et al. The Cancer Cell Line Encyclopedia enables predictive modelling of anticancer drug sensitivity. Nature 483: 603-607). […] In rare instances, values <0 or >10 may be observed. […] Curve-fitting, calculations, and report generation was performed using a custom data reduction engine and MathIQ based software (AIM).

NCIH446 = assay: OncoPanel cell proliferation assay, NCIH446; type: cell-based, human; details: for Cell Count Activity Area: NCIH446, scale 0-10
Description: as §1, §2, §3, §4, §5

A431 = assay: OncoPanel cell proliferation assay, A431; type: cell-based, human; details: for Cell Count Activity Area: A431, scale 0-10
Description: as §1, §2, §3, §4, §5

CRO-AP2 = assay: OncoPanel cell proliferation assay, CRO-AP2; type: cell-based, human; details: CRO-AP2, scale 0-10
Description: as §1, §2, §3, §4, §5

CaOV3 = assay: OncoPanel cell proliferation assay, CaOV3; type: cell-based, human; details: for Cell Count Activity Area: CaOV3, scale 0-10
Description: as §1, §2, §3, §4, §5

SK-MEL-28 = assay: OncoPanel cell proliferation assay, SK-MEL-28; type: cell-based, human; details: for Cell Count Activity Area: SK-MEL-28, scale 0-10
Description: as §1, §2, §3, §4, §5

MES-SA = assay: OncoPanel cell proliferation assay, MES-SA; type: cell-based, human; details: for Cell Count Activity Area: scale 0-10
Description: as §1, §2, §3, §4, §5

NCI-H510A = assay: OncoPanel cell proliferation assay, NCI-H510A; type: cell-based, human; details: for Cell Count Activity Area: scale 0-10
Description: as §1, §2, §3, §4, §5

SNU-C2B = assay: OncoPanel cell proliferation assay, SNU-C2B; type: cell-based, human; details: for Cell Count Activity Area: scale 0-10
Description: as §1, §2, §3, §4, §5

SNU-5 = assay: OncoPanel cell proliferation assay, SNU-5; type: cell-based, human
Description: as §1, with “Cells” for “Cells were grown in RPMI 1640, 10% FBS, 2 mM L-alanyl-L-glutamine, 1 mM Na pyruvate, or a special medium. Cells”
as §2, §3, §4
GI50 is the concentration needed to reduce the observed growth by half (midway between the curve maximum and the time zero value). […] In rare instances, values <0 or >10 may be observed. […] Curve-fitting, calculations, and report generation was performed using a custom data reduction engine and MathIQ based software (AIM).

OVCAR3 = assay: OncoPanel cell proliferation assay, OVCAR3; details: for Cell Count Activity Area: OVCAR3, scale 0-10
Description: (§6) Cells were seeded into 384-well plates and incubated in a humidified atmosphere of 5% CO2 at 37° C. Compounds were added the day following cell seeding. At the same time, a time zero untreated cell plate was generated. After a 3-day incubation period, cells were fixed and stained to allow fluorescence imaging of nuclei. Compounds (1 mM stock solutions) were serially diluted in half-log steps from the highest test concentration (1 micromol), and assayed over 10 concentrations with a maximum assay concentration of 0.1% DMSO. Automated fluorescence microscopy was carried out using a Molecular Devices ImageXpress Micro XL high-content imager, and images were collected with a 4× objective. 16-bit TIFF images were acquired and analyzed with MetaXpress 5.1.0.41 software.

SK-NEP-1 = assay: OncoPanel cell proliferation assay, SK-NEP-1; details: SK-NEP-1, scale 0-10
Description: as §6

[1] = Homo sapiens, 72 h, 3-day incubation, read-out: Cell Count EC50
[2] = Homo sapiens, 72 h, 3-day incubation, read-out: Cell Count GI50
[3] = Homo sapiens, 72 h, 3-day incubation, read-out: Cell Count IC50

SMILES | Cell Count Activity Area (G-402) | Cell Count Activity Area (NCIH446) | Cell Count Activity Area (A431) | Cell Count Activity Area (CRO-AP2) | Cell Count Activity Area (CaOV3) | Cell Count Activity Area (SK-MEL-28) | Cell Count Activity Area (MES-SA) | Cell Count Activity Area (NCI-H510A) | Cell Count Activity Area (SNU-C2B) | Cell Count Activity Area (OVCAR3) | Cell Count Activity Area (SK-NEP-1) | also measured
CO[C@H]1C[C@@H]2CC[C@@H](C)[C@@](O)(O2)C(=O)C(=O)N2CCCC[C@H]2C(=O)O[C@H]([C@H](C)C[C@@H]2CC[C@@H](O)[C@H](OC)C2)CC(=O)[C@H](C)/C=C(\C)[C@@H](O)[C@@H](OC)C(=O)[C@H](C)C[C@H](C)/C=C/C=C/C=C/1C [Rapamycin, reference compound] | 4.68 | 1.69 | 0.28 | 6.22 | 2.40 | 2.50 | 5.39 | 1.63 | 1.99 | 2.08 | 4.22 | EC50 (NCIH446; Homo sapiens, NCI-H446, 72 h, NCIH446, 3-day incubation, read-out: Cell Count EC50): > 1000 nM; IC50 (NCIH446; Homo sapiens, NCI-H446, 72 h, NCIH446, 3-day incubation, read-out: Cell Count IC50): > 1000 nM; EC50 (A431; Homo sapiens, A-431, 72 h, A431, 3-day incubation, read-out: Cell Count EC50): > 1000 nM; GI50 (A431; Homo sapiens, A-431, 72 h, A431, 3-day incubation, read-out: Cell Count GI50): > 1000 nM; IC50 (A431; Homo sapiens, A-431, 72 h, A431, 3-day incubation, read-out: Cell Count IC50): > 1000 nM; EC50 (CaOV3; Homo sapiens, Caov-3, 72 h, CaOV3, 3-day incubation, read-out: Cell Count EC50): > 1000 nM; GI50 (CaOV3; Homo sapiens, Caov-3, 72 h, CaOV3, 3-day incubation, read-out: Cell Count GI50): > 1000 nM; IC50 (CaOV3; Homo sapiens, Caov-3, 72 h, CaOV3, 3-day incubation, read-out: Cell Count IC50): > 1000 nM; IC50 (SK-MEL-28; Homo sapiens, 72 h, SK-MEL-28, 3-day incubation, read-out: Cell Count IC50): > 1000 nM; EC50 (NCI-H510A; [1]): > 1000 nM; GI50 (NCI-H510A; [2]): > 1000 nM; IC50 (NCI-H510A; [3]): > 1000 nM; EC50 (SNU-C2B; [1]): > 1000 nM; GI50 (SNU-C2B; [2]): > 1000 nM; IC50 (SNU-C2B; [3]): > 1000 nM; GI50 (SNU-5; Homo sapiens, 72 h, SNU-5, 3-day incubation, read-out: Cell Count GI50): 24 nM; IC50 (SNU-5; Homo sapiens, 72 h, SNU-5, 3-day incubation, read-out: Cell Count IC50): > 1000 nM; IC50 (OVCAR3; Homo sapiens, OVCAR-3, 72 h, read-out: Cell Count IC50): > 1000 nM
CN[C@@H]1C[C@H]2O[C@@](C)([C@@H]1OC)n1c3ccccc3c3c4c(c5c6ccccc6n2c5c31)C(=O)NC4 [Staurosporine, reference compound] | 5.93 | 2.81 | 5.64 | 3.99 | 5.31 | 2.81 | 2.80 | 1.68 | 3.80 | 3.41 | 2.78 | GI50 (MES-SA; [2]): 13 nM; Cell Count Activity Area (SNU-5; SNU-5, scale 0-10): 2.58
